This is an account of results in paper PMC6271423, “Synthesis and Biological Evaluation of New Pyridone-Annelated Isoindigos as Anti-Proliferative Agents” (Molecules, 2014).

Data set [1] has as its system K562 cells. The data set can be described thus: MTT cell viability (antiproliferative) assay in K562 cells. Type of data set: cell-based, human. Conditions: for cytotoxicity / antiproliferative activity to K562 cells (in words): 0.0 to 30.0 µM, 24 h; for IC50: Homo sapiens. On the procedure:
The antiproliferative activities of the synthesized molecules were initially evaluated in human chronic […] leukemia cells K562. The effect of the six derivatives on the viability of K562 was assessed by an MTT assay as described in the methods. In all MTT tests performed, the known antiproliferative agent etoposide was used as a positive control to validate the accuracy of the assay.
Figure 2 The isoindigo compounds 3b and 3d inhibit the growth of K562 cells in a dose- and time-dependent manner. (A) K562 cells were treated with varying concentrations of compounds 3a to 3f (0.0 to 30.0 µM) for 24 h and the antiproliferative activity was analyzed by MTT assay as described in the methods. (B) K562 cells were incubated with 12.0 µM of either compound 3b or 3d for different periods of time (0 to 72 h) and cell viability was assessed by the MTT assay. The controls (in the presence or absence of the solvent vehicle DMSO) represent cells incubated under similar conditions in the absence of the test compound. The percentage of cell viability in each sample was expressed relative to untreated control, which was considered as a 100%. K562 cells were also treated with 4.0, 8.0 and 12.0 µM etoposide under similar conditions as positive controls. The results shown represent the mean ± SD of three independent trials.
Figure 3 The IC50 values of compounds 3b and 3d determined in K562 cells at different time points. K562 cells were treated with varying concentrations of compounds 3b or 3d (0.0 to 40.0 µM) for different periods of time (24, 48 and 72 h) and their antiproliferative activity was analyzed by MTT viability assay. The sigmoidal curves shown were obtained by plotting the percentages of viability (mean ± SD of three independent experiments, three replicates for each concentration in every experiment were used) versus logarithmic molar concentrations of the test compounds at the three different time points, and the IC50 value was determined using a non-linear regression analysis of GraphPad Prism 6 software.
The human chronic myelogenous leukemia K562 (ATCC® CCL-243^TM) and human acute monocytic leukemia THP-1 (ATCC® TIB-202^TM) suspension cells were maintained in RPMI-1640, while adherent HepG2 (human hepatocellular carcinoma, ATCC® HB-8065^TM), MCF7 (human breast adenocarcinoma, ATCC® HTB-22^TM) were cultured in DMEM medium. Adherent Caco-2 (human colorectal adenocarcinoma, ATCC® HTB-37^TM), HEK-293 (human embryonic epithelial cells, ATCC® CRL-1573^TM) and L-929 (mouse subcutaneous connective tissue fibroblast, ATCC® CCL-1^TM) cells were cultured in MEM medium. The media were supplemented with 10% (v/v) heat inactivated FBS, penicillin G (100 U/mL) and streptomycin ([…]), and cells were incubated at 37 °C in a 5% CO2 humidified incubator. The media were changed every 2–3 days and subcultured when the cell population density reached to 70%–80% confluence. Cells were seeded at an appropriate density according to each experimental design.
The antiproliferative activity of the synthesized compounds was assessed using the MTT cell viability assay. Briefly, 2 × 10^4 of the non-adherent K562 or THP-1 cells, in a 100 μL of RPMI-1640 medium, or […] of adherent HepG2, MCF-7, Caco-2, HEK-293 or L-929, in a same volume of the proper media, were seeded in each well of a 96 well-plate. After 24 h, the media was removed by aspiration and replaced by fresh media containing the test compound at varying concentrations (0.0 to 40.0 µM, for cancerous cells) or (0.0 to 80.0 µM, for noncancerous cells), and incubated for the desired time in a 5% CO2-cell culture incubator. Alternatively, cultured K562 cells were incubated with 12.0 µM of the test compound for different time-points (0, 2, 4, 8, 12, 24, 48 and 72 h) before analysis. […]

Data set [2] relates to THP-1 cells. As to the kind of experiment: MTT cell viability (antiproliferative) assay in THP-1 cells. In kind it is cell-based. The settings on record: Homo sapiens, 48 h incubation. The source says:
(§1) In addition to the effect on K562 cells, we have also evaluated the potential antiproliferative activities of compounds 3b and 3d on different hematological and solid tumor cell lines. […] To further characterize the cytotoxicity of compounds 3b and 3d, we evaluated their effects on inducing apoptosis of the cultured K562 cells (Figure 5).
(§2) Figure 4 Compounds 3b and 3d inhibit the growth of various hematological and solid tumor cell lines but not noncancerous cells at low IC50 values. […]
(§3) The antiproliferative activity of the synthesized compounds was assessed using the MTT cell viability assay. […] Absorbance was measured within 60 min at 595 nm using an E Max Precision Microplate reader (Molecular Devices, Sunnyvale, CA, USA). Cell viability at a given concentration was determined from the following expression: Percentage Viability = (Atest compound − Ablank/Acontrol − Ablank) × 100 (1) where Atest compound = absorbance of wells with cells exposed to test compound in media; Acontrol = absorbance of wells with cells in media and Ablank = absorbance of wells with DMSO only, without cells. […]

In data set [3] the test system is HepG2 cells. The data set can be described thus: MTT cell viability (antiproliferative) assay in HepG2 cells. In kind it is cell-based. Conditions: Homo sapiens, 48 h incubation.
From the text: as §1, §2, §3

Data set [4] deals with MCF-7 cells. As to the kind of experiment: MTT cell viability (antiproliferative) assay in MCF-7 cells. In kind it is cell-based. The settings on record: Homo sapiens, MCF7, 48 h incubation.
From the text: as §1, §2, §3

Data set [5] has as its system Caco-2 cells. The data set can be described thus: MTT cell viability (antiproliferative) assay in Caco-2 cells. In kind it is cell-based. Conditions: Homo sapiens, 48 h incubation.
From the text: as §1, §2, §3

For data set [6], the system named is HEK-293 cells. The data set can be described thus: MTT cell viability assay in noncancerous HEK-293 cells. In kind it is cell-based. The settings on record: Homo sapiens, HEK293, 48 h incubation.
From the text: as §1, §2, §3

Data set [7] relates to L-929 cells. The data set can be described thus: MTT cell viability assay in noncancerous L-929 fibroblasts. In kind it is cell-based. Conditions: Mus musculus, L929, 48 h incubation.
From the text: as §1, §2, §3
Background: Tetrazolium assays rely on reduction of a dye to a coloured formazan, in cell work by metabolically active cells.

On the set-up of data set [8]: method as in PMID 16330129. The settings on record: cited from earlier work.

Bounds are passed on as bounds.

Take `CCn1cc(C(=O)O)c(=O)c2c3c(ccc21)NC(=O)/C3=C1/C(=O)Nc2ccccc21` [3a, (E)-6-Ethyl-2,9-dioxo-1-(2'-oxoindolin-3'-ylidene)-2,3,6,9-tetrahydro-1H-pyrrolo[3,2-f]quinoline-8-carboxylic acid]: the melting point (usually the temperature of the solid-liquid transition) is above 300 °C. Further, the “cytotoxicity / antiproliferative activity to K562 cells (in words)” value in [1] is given as “significantly inhibited their antiproliferative activities”.
`CCn1cc(C(=O)O)c(=O)c2c3c(ccc21)NC(=O)/C3=C1/C(=O)Nc2ccc(Cl)cc21` [3b, (E)-1-(5'-Chloro-2'-oxoindolin-3'-ylidene)-6-ethyl-2,3,6,9-tetrahydro-2,9-dioxo-1H-pyrrolo[3,2-f]quinoline-8-carboxylic acid]: the “cytotoxicity / antiproliferative activity to K562 cells (in words)” value in data set [1] was “significant dose-dependent cytotoxicity”. Besides, the IC50 (usually the concentration needed to halve the response being measured) in data set [1] (K562, 24 h incubation) is 15.1 ± 1.27 µM; in [1] (K562, 48 h incubation), 6.6 ± 0.58 µM; in [1] (K562, 72 h incubation), 4.02 ± 0.52 µM; in data set [2], 8.21 ± 0.62 µM; in data set [3], 8.97 ± 0.84 µM; in data set [4] it was 11.9 ± 0.67 µM. Besides, the results for the IC50 in data set [5], in [6] and in data set [7] were 14.6 ± 1.32 µM, 30.7 ± 2.52 µM and 40.4 ± 3.15 µM, respectively.
As for `CCn1cc(C(=O)O)c(=O)c2c3c(ccc21)NC(=O)/C3=C1/C(=O)Nc2cc(Cl)ccc21` [3c, (E)-1-(6'-Chloro-2'-oxoindolin-3'-ylidene)-6-ethyl-2,3,6,9-tetrahydro-2,9-dioxo-1H-pyrrolo[3,2-f]quinoline-8-carboxylic acid], the melting point is above 300 °C. Besides, the “cytotoxicity / antiproliferative activity to K562 cells (in words)” value in data set [1] is “significantly abolished the cytotoxicity”.
As to `CCn1cc(C(=O)O)c(=O)c2c3c(ccc21)NC(=O)/C3=C1/C(=O)Nc2ccc(Br)cc21` [3d, (E)-1-(5'-Bromo-2'-oxoindolin-3'-ylidene)-6-ethyl-2,3,6,9-tetrahydro-2,9-dioxo-1H-pyrrolo[3,2-f]quinoline-8-carboxylic acid], the “cytotoxicity / antiproliferative activity to K562 cells (in words)” value in data set [1] is “significant dose-dependent cytotoxicity”. The IC50 in data set [1] (K562, 24 h incubation) turned out to be 19.1 ± 1.8 µM; in [1] (K562, 48 h incubation), 8.66 ± 0.81 µM; in data set [1] (K562, 72 h incubation), 6.92 ± 0.84 µM; in data set [2], 9.1 ± 1 µM; in data set [3], 13.9 ± 2.01 µM; in data set [4], 15.7 ± 1.94 µM. For the same molecule, the IC50 in [5] is 19 ± 1.37 µM; in data set [6] it was 52.5 ± 4.7 µM; in [7] it was 71.9 ± 5.22 µM.
In the case of `CCn1cc(C(=O)O)c(=O)c2c3c(ccc21)NC(=O)/C3=C1/C(=O)Nc2cc(Br)ccc21` [3e, (E)-1-(6'-Bromo-2'-oxoindolin-3'-ylidene)-6-ethyl-2,3,6,9-tetrahydro-2,9-dioxo-1H-pyrrolo[3,2-f]quinoline-8-carboxylic acid], the melting point is above 300 °C. Further, in [1], the “cytotoxicity / antiproliferative activity to K562 cells (in words)” value was “significantly abolished the cytotoxicity”.
Taken in the same sequence, the figures for `CCn1cc(C(=O)O)c(=O)c2c3c(ccc21)NC(=O)/C3=C1/C(=O)Nc2ccc([N+](=O)[O-])cc21` [3f, (E)-6-Ethyl-1-(5'-nitro-2'-oxoindolin-3'-ylidene)-2,9-dioxo-2,3,6,9-tetrahydro-1H-pyrrolo[3,2-f]quinoline-8-carboxylic acid] were above 300 °C and “significantly inhibited their antiproliferative activities”.
Regarding `CC(=O)OC1COC(N2C(=O)C(=C3C(=O)Nc4ccccc43)c3ccccc32)C(OC(C)=O)C1OC(C)=O` [Natura^TM, 1-(β-D-triacetylxylopyranosyl) isoindigo], the “solubility in water (in words)” value in data set [8] is “almost completely insoluble in water”.
